In patent publication US20060276464A1, “Diarylsulfone sulfonamides and use thereof” (Wyeth, priority 2005, published 2006):
Like-named read-outs stand apart in the source and are kept apart here.

Target: T1, SFRP-1 (Homo sapiens, UniProt Q8N474)
T1 sequence (Q8N474 32-314): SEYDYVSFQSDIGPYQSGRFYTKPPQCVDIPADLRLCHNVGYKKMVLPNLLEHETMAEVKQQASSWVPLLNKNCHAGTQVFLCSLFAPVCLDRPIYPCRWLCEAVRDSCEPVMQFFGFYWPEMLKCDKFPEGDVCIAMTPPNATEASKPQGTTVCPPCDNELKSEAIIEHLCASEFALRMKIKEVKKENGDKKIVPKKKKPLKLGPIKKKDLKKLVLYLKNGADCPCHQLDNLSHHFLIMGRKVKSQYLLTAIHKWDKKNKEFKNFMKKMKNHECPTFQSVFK
Test: Cell-based assay for in vitro measurement of SFRP-1/SARP2 antagonist activity (U2OS cells co-transfected with 16x TCF-tk-Luciferase reporter, Wnt and hSFRP-1);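 further: U2OS cells co-transfected with a TCF-tk luciferase reporter, a Wnt vector, hSFRP-1 or empty vector and CMV-βgal, luciferase luminescence read in cell lysates alongside βgal activity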
Conditions: for fold induction at 60 µM / fold induction at 20 µM / fold induction at 15 µM / fold induction at 30 µM / fold induction at 10 µM: U2OS; for fold induction at 10 µM: read-out: Fold Induction with SFRP-1, U2OS cells, single dose 10 μM, luciferase reporter, fold induction over SFRP-1 control

[1] = read-out: Fold Induction with SFRP-1, Conc 20 μM, with SFRP-1, fold induction over SFRP-1 control, single dose
[2] = read-out: Fold Induction without SFRP-1, Conc 20 μM, without SFRP-1, single dose
[3] = read-out: Fold Induction with SFRP-1, Conc 15 μM, with SFRP-1, fold induction over SFRP-1 control, single dose
[4] = read-out: Fold Induction without SFRP-1, Conc 15 μM, without SFRP-1, single dose
[5] = read-out: Fold Induction with SFRP-1, Conc 30 μM, with SFRP-1, fold induction over SFRP-1 control, single dose
[6] = read-out: Fold Induction without SFRP-1, Conc 30 μM, without SFRP-1, single dose
[7] = read-out: Fold Induction with SFRP-1, Conc 15 μM, single dose, luciferase reporter, fold induction over SFRP-1 control, cells with SFRP-1
[8] = read-out: Fold Induction without SFRP-1, Conc 15 μM, single dose, luciferase reporter, cells without SFRP-1 (specificity control)

Cc1ccc(S(=O)(=O)NCCCn2ccnc2)cc1[S+]([O-])c1ccccc1 (centres unmarked) [Example 306, N-[3-(1H-imidazol-1-yl)propyl]-4-methyl-3-(phenylsulfinyl)benzenesulfonamide]
fold induction at 60 µM (read-out: Fold Induction with SFRP-1, Conc 60 μM, with SFRP-1, fold induction over SFRP-1 control, single dose): 1.3 | fold induction at 60 µM (read-out: Fold Induction without SFRP-1, Conc 60 μM, without SFRP-1, single dose): 0.9

Cc1ccc(S(=O)(=O)c2ccc(F)cc2)cc1S(=O)(=O)N[C@H]1C[C@@H]1c1ccccc1 [Example 250, 5-[(4-fluorophenyl)sulfonyl]-2-methyl-N-[(1S,2R)-2-phenylcyclopropyl]benzenesulfonamide]
fold induction at 20 µM [1]: 1.4 | fold induction at 20 µM [2]: 0.9

Cc1ccc(S(=O)(=O)c2ccccc2)cc1S(=O)(=O)NC1CCN(S(=O)(=O)c2cccc3c(N(C)C)cccc23)CC1 [Example 483, N-(1-{[5-(dimethylamino)-1-naphthyl]sulfonyl}piperidin-4-yl)-2-methyl-5-(phenylsulfonyl)benzenesulfonamide]
fold induction at 15 µM [3]: 2.9 | fold induction at 15 µM [4]: 1

Cc1ccc(S(=O)(=O)c2ccc(C)c(S(=O)(=O)NCCc3ccccc3F)c2)cc1 [Example 138, N-[2-(2-fluorophenyl)ethyl]-2-methyl-5-[(4-methylphenyl)sulfonyl]benzenesulfonamide]
fold induction at 15 µM [3]: 2.7 | fold induction at 30 µM [5]: 1.1 | fold induction at 15 µM [4]: 0.9 | fold induction at 30 µM [6]: 0.5

Cc1ccc(S(=O)(=O)c2ccccc2)cc1S(=O)(=O)NC1CCc2ccccc21 (centres unmarked) [Example 415, N-(2,3-dihydro-1H-inden-1-yl)-2-methyl-5-(phenylsulfonyl)benzenesulfonamide]
fold induction at 15 µM [3]: 1.5 | fold induction at 15 µM [4]: 1.2

Cc1ccc(S(=O)(=O)c2ccc(Cl)cc2)cc1S(=O)(=O)NCCc1ccccc1Cl [Example 89, N-[2-(2-chlorophenyl)ethyl]-5-[(4-chlorophenyl)sulfonyl]-2-methylbenzenesulfonamide]
fold induction at 30 µM [5]: 1.8 | fold induction at 30 µM [6]: 0.5

O=C(NCCNS(=O)(=O)c1cc(S(=O)(=O)c2ccccc2)ccc1C(F)(F)F)c1ccc(C(F)(F)F)cc1 [Example 781, N-[2-({[5-(Phenylsulfonyl)-2-(trifluoromethyl)phenyl]sulfonyl}amino)ethyl]-4-(trifluoromethyl)benzamide]
fold induction at 10 µM: 1.2

O=C(O)CCNS(=O)(=O)c1cccc(S(=O)(=O)c2ccccc2)c1 [Example 202, N-{[3-(phenylsulfonyl)phenyl]sulfonyl)-beta-alanine]
fold induction at 30 µM [5]: 1.1 | fold induction at 30 µM [6]: 1.2

CCc1ccc(S(=O)(=O)c2ccccc2)cc1S(=O)(=O)N1CCN(CCN2CCOCC2)CC1 [Example 287, 4-[2-(4-{[2-ethyl-5-(phenylsulfonyl)phenyl]sulfonyl}piperazin-1-yl)ethyl]morpholine]
fold induction at 15 µM [3]: 2.1 | fold induction at 15 µM [4]: 1.2

Cc1cc(C)c(S(=O)(=O)c2ccc(F)cc2)cc1S(=O)(=O)NCCc1ccccn1 [Example 331, 5-[(4-fluorophenyl)sulfonyl]-2,4-dimethyl-N-(2-pyridin-2-ylethyl)benzenesulfonamide]
fold induction at 15 µM [3]: 2.3 | fold induction at 15 µM [4]: 1.1

Cc1ccc(S(=O)(=O)c2ccccc2)cc1S(=O)(=O)NC[C@H](C)c1ccccc1 [Example 248, 2-methyl-N-[(2R)-2-phenylpropyl]-5-(phenylsulfonyl)benzenesulfonamide]
fold induction at 20 µM [1]: 2.8 | fold induction at 20 µM [2]: 0.9

Cc1ccc(S(=O)(=O)c2cccc(-c3ccccc3)c2)cc1S(=O)(=O)NCCc1ccccn1 [Example 434, 5-(biphenyl-3-ylsulfonyl)-2-methyl-N-(2-pyridin-2-ylethyl)benzenesulfonamide]
fold induction at 15 µM [3]: 2.1 | fold induction at 15 µM [4]: 1.1

COc1ccc(S(=O)(=O)c2ccccc2)cc1S(=O)(=O)NCCc1ccccn1 [Example 234, 2-methoxy-5-(phenylsulfonyl)-N-(2-pyridin-2-ylethyl)benzenesulfonamide]
fold induction at 15 µM [3]: 1.2 | fold induction at 15 µM [4]: 1

CCc1ccc(S(=O)(=O)c2ccccc2)cc1S(=O)(=O)N1CCN(CCCN2CCOCC2)CC1 [Example 289, 4-[3-(4-{[2-ethyl-5-(phenylsulfonyl)phenyl]sulfonyl}piperazin-1-yl)propyl]morpholine]
fold induction at 15 µM [3]: 2.3 | fold induction at 15 µM [4]: 1.1

CC(C)c1ccc(S(=O)(=O)c2ccc(F)cc2)cc1S(=O)(=O)NC1CC1 [Example 521, N-cyclopropyl-5-[(4-fluorophenyl)sulfonyl]-2-isopropylbenzenesulfonamide]
fold induction at 15 µM [7]: 1.7 | fold induction at 15 µM [8]: 1

CCc1ccc(S(=O)(=O)c2ccccc2)cc1S(=O)(=O)NCCc1ccccc1 [Example 141, 2-ethyl-N-(2-phenylethyl)-5-(phenylsulfonyl)benzenesulfonamide]
fold induction at 15 µM [3]: 3.3 | fold induction at 15 µM [4]: 1

CC(C)c1ccc(S(=O)(=O)c2ccc(F)cc2)cc1S(=O)(=O)NC1CCC1 [Example 522, N-cyclobutyl-5-[(4-fluorophenyl)sulfonyl]-2-isopropylbenzenesulfonamide]
fold induction at 15 µM [7]: 1.4 | fold induction at 15 µM [8]: 0.9

Cc1ccc([S+]([O-])c2ccccc2)cc1S(=O)(=O)NCCCn1ccnc1 (centres unmarked) [Example 346, N-[3-(1H-imidazol-1-yl)propyl]-2-methyl-5-(phenylsulfinyl)benzenesulfonamide]
fold induction at 15 µM [3]: 2.4 | fold induction at 15 µM [4]: 1.3

O=C(NCCNS(=O)(=O)c1cc(S(=O)(=O)c2ccccc2)ccc1C(F)(F)F)c1ccc(F)cc1 [Example 777, 4-Fluoro-N-[2-({[5-(phenylsulfonyl)-2-(trifluoromethyl)phenyl]sulfonyl}amino)ethyl]benzamide]
fold induction at 10 µM: 1.1

COc1ccc(CCNS(=O)(=O)c2cc(S(=O)(=O)c3ccccc3)ccc2C)cc1OC [Example 34, N-[2-(3,4-dimethoxyphenyl)ethyl]-2-methyl-5-(phenylsulfonyl)benzenesulfonamide]
fold induction at 30 µM [5]: 1.7 | fold induction at 30 µM [6]: 0.6

CCOc1ccc(CCNS(=O)(=O)c2cc(S(=O)(=O)c3ccccc3)ccc2C)cc1 [Example 51, N-[2-(4-ethoxyphenyl)ethyl]-2-methyl-5-(phenylsulfonyl)benzenesulfonamide]
fold induction at 30 µM [5]: 2.6 | fold induction at 30 µM [6]: 0.9

CCc1ccc(S(=O)(=O)c2ccccc2)cc1S(=O)(=O)N1CCN(CCN2CCCC2)CC1 [Example 288, 1-{[2-ethyl-5-(phenylsulfonyl)phenyl]sulfonyl}-4-(2-pyrrolidin-1-ylethyl)piperazine]
fold induction at 15 µM [3]: 3.6 | fold induction at 15 µM [4]: 1.7

O=S(=O)(N[C@H]1C[C@@H]1c1ccccc1)c1cccc(S(=O)(=O)c2ccccc2)c1 [Example 259, N-[(1S,2R)-2-phenylcyclopropyl]-3-(phenylsulfonyl)benzenesulfonamide]
fold induction at 20 µM [1]: 1 | fold induction at 20 µM [2]: 1.1

CCOc1ccc(CCNS(=O)(=O)c2cc(S(=O)(=O)c3ccccc3)ccc2CC)cc1OC [Example 149, N-[2-(4-ethoxy-3-methoxyphenyl)ethyl]-2-ethyl-5-(phenylsulfonyl)benzenesulfonamide]
fold induction at 15 µM [3]: 3.1 | fold induction at 15 µM [4]: 1.1

O=S(=O)(NC(CO)CO)c1cc(S(=O)(=O)c2ccccc2)ccc1Cl [Example 675, 2-chloro-N-[2-hydroxy-1-(hydroxymethyl)ethyl]-5-(phenylsulfonyl)benzenesulfonamide]
EC50: 41.5 µM | fold induction at 10 µM: 1.7

Cc1ccc(S(=O)(=O)c2ccc(F)cc2)cc1S(=O)(=O)NCCC#N [Example 161, N-(2-cyanoethyl)-5-[(4-fluorophenyl)sulfonyl]-2-methylbenzenesulfonamide]
fold induction at 15 µM [3]: 2.7 | fold induction at 15 µM [4]: 1

Cc1ccc(S(=O)(=O)c2ccc(F)cc2)cc1S(=O)(=O)NCCC(=O)O [Example 180, N-({5-[(4-fluorophenyl)sulfonyl]-2-methylphenyl}sulfonyl)-beta-alanine]
fold induction at 15 µM [3]: 1.2 | fold induction at 15 µM [4]: 1

CCc1ccc(S(=O)(=O)c2ccccc2)cc1S(=O)(=O)NC1CCOCC1 [Example 300, 2-ethyl-5-(phenylsulfonyl)-N-tetrahydro-2H-pyran-4-ylbenzenesulfonamide]
fold induction at 15 µM [3]: 3.4 | fold induction at 15 µM [4]: 1.2

CC(C)c1ccc(S(=O)(=O)c2ccc(F)cc2)cc1S(=O)(=O)NC1CCN(C(=S)Nc2ccc(C(F)(F)F)cc2)CC1 [Example 730, 4-[({5-[(4-fluorophenyl)sulfonyl]-2-isopropylphenyl}sulfonyl)amino]-N-[4-(trifluoromethyl)phenyl]piperidine-1-carbothioamide]
fold induction at 10 µM: 2.2

Cc1ccc(S(=O)(=O)c2ccccc2)cc1S(=O)(=O)NCCc1ccc(S(N)(=O)=O)cc1 [Example 40, N-{2-[4-(aminosulfonyl)phenyl]ethyl}-2-methyl-5-(phenylsulfonyl)benzenesulfonamide]
fold induction at 30 µM [5]: 1.7 | fold induction at 30 µM [6]: 0.9
